Experimental data taken from PMC8550792, “Evolution of kinase polypharmacology across HSP90 drug discovery” (Cell Chemical Biology, 2021).

What was measured:
Test in all cases: biochemical
Type in all cases: biochemical
[1] = target: T1, 382 unique human kinases (Homo sapiens, UniProt P31751, E17K); conditions: AKT2 (E17K), 10 uM; for remaining activity at 10 µM: read-out: % Enzyme Activity (relative to DMSO controls)
T1 construct: purchased Reaction Biology (HotSpot contract assay)

[2] = target: T2, 382 unique human kinases (Homo sapiens, UniProt P00533, G719D); conditions: EGFR (G719D), 10 uM; for remaining activity at 10 µM: read-out: % Enzyme Activity (relative to DMSO controls)
T2 construct: purchased Reaction Biology (HotSpot contract assay)

[3] = target: T3, 382 unique human kinases (Homo sapiens, UniProt P46734); conditions: MEK3, 10 uM; for remaining activity at 10 µM: read-out: % Enzyme Activity (relative to DMSO controls)
T3 construct: purchased Reaction Biology (HotSpot contract assay)
T3 sequence (P46734 1-347): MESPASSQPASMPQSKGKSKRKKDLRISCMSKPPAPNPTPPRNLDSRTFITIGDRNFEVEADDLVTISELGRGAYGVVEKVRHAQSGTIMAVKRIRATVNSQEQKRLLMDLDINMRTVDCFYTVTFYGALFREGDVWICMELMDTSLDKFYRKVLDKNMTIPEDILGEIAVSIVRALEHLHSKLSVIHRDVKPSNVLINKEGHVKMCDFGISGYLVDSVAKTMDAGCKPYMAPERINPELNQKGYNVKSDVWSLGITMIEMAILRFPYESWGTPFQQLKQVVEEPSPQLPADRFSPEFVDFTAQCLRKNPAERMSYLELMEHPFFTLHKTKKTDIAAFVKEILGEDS

[4] = target: T4, 382 unique human kinases (Homo sapiens, UniProt P15056, V600E); conditions: BRAF (V599E), 10 uM; for remaining activity at 10 µM: read-out: % Enzyme Activity (relative to DMSO controls)
T4 construct: purchased Reaction Biology (HotSpot contract assay)

[5] = target: T5, 382 unique human kinases (Homo sapiens, UniProt P36894); conditions: ALK3/BMPR1A, 10 uM; for remaining activity at 10 µM: read-out: % Enzyme Activity (relative to DMSO controls)
T5 construct: purchased Reaction Biology (HotSpot contract assay)

[6] = target: T6, 382 unique human kinases (Homo sapiens, UniProt Q9Y3S1); conditions: WNK2, 10 uM; for remaining activity at 10 µM: read-out: % Enzyme Activity (relative to DMSO controls)
T6 construct: purchased Reaction Biology (HotSpot contract assay)

[7] = target: T7, 382 unique human kinases (Homo sapiens, UniProt Q9NR20); conditions: DYRK4, 10 uM; for remaining activity at 10 µM: read-out: % Enzyme Activity (relative to DMSO controls)
T7 construct: purchased Reaction Biology (HotSpot contract assay)
T7 sequence (Q9NR20 1-520): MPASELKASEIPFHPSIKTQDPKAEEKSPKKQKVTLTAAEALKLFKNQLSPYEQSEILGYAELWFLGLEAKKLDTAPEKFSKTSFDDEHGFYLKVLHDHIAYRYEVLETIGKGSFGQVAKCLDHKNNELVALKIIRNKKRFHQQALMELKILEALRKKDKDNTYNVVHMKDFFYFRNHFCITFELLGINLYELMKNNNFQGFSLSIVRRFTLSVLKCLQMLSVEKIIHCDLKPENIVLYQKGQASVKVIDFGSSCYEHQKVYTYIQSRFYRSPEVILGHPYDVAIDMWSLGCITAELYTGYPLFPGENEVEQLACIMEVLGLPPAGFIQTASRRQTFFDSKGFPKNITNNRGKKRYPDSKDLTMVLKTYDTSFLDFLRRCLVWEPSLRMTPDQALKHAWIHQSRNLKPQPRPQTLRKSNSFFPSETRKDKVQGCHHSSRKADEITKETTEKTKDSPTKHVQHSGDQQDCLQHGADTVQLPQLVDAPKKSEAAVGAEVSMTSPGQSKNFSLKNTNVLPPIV

[8] = target: T8, 382 unique human kinases (Homo sapiens, UniProt Q02763, P883A); conditions: TIE2 (P883A), 10 uM; for remaining activity at 10 µM: read-out: % Enzyme Activity (relative to DMSO controls)
T8 construct: purchased Reaction Biology (HotSpot contract assay)

[9] = target: T9, 382 unique human kinases (Homo sapiens, UniProt Q14164); conditions: kinase IKKe/IKBKE, compound 10 uM; for remaining activity at 10 µM: read-out: % Enzyme Activity (relative to DMSO controls)
T9 construct: purchased Reaction Biology (HotSpot contract assay)
T9 sequence (Q14164 1-716): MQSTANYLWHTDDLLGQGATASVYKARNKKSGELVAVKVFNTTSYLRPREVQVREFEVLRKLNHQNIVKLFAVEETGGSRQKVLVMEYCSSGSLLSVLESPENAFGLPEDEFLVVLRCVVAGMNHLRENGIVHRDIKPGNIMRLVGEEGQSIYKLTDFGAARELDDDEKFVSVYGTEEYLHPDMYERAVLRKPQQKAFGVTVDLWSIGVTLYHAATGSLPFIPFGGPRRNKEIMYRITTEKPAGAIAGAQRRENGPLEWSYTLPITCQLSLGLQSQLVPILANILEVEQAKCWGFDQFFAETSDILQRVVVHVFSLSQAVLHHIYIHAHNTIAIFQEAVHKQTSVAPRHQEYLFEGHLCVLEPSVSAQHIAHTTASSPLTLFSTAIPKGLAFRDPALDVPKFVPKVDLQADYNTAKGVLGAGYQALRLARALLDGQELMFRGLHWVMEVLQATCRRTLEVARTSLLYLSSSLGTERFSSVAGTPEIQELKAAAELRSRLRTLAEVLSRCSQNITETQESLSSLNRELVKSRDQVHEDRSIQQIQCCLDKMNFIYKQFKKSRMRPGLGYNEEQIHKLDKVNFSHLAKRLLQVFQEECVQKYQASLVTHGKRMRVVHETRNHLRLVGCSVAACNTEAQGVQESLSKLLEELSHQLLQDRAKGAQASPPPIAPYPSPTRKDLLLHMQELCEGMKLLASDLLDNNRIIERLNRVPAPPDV

[10] = target: T10, 382 unique human kinases (Homo sapiens, UniProt P07949, L790F); conditions: RET (L790F), 10 uM; for remaining activity at 10 µM: read-out: % Enzyme Activity (relative to DMSO controls)
T10 construct: purchased Reaction Biology (HotSpot contract assay)
T10 sequence (P07949 29-1114 L790F): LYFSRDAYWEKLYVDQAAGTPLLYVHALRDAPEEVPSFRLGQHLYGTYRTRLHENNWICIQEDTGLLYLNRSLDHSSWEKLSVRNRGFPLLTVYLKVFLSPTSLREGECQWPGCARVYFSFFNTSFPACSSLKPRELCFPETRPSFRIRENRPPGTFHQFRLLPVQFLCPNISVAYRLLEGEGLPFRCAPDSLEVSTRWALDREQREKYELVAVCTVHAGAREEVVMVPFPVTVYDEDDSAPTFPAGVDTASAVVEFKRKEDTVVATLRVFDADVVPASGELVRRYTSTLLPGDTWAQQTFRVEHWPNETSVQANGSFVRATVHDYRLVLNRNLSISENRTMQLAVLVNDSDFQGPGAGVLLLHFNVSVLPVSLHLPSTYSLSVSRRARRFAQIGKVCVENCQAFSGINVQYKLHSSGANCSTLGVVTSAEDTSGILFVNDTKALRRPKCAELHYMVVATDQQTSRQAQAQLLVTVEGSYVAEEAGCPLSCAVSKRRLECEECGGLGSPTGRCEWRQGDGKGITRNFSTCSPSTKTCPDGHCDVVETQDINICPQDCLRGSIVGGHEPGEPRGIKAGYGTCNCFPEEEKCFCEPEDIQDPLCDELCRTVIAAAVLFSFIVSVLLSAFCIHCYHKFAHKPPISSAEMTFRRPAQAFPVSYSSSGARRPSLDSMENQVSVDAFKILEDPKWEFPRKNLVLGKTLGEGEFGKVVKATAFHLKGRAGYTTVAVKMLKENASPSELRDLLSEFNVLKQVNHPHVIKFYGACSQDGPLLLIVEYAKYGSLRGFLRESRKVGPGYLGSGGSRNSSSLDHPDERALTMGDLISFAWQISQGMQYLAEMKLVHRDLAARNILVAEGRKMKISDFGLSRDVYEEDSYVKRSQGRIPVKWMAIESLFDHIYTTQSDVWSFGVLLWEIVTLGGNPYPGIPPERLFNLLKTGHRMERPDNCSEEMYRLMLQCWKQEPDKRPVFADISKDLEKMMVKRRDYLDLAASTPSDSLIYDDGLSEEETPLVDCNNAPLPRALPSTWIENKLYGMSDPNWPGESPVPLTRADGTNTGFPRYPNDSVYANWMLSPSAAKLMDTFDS

T5 sequence (P36894 24-532): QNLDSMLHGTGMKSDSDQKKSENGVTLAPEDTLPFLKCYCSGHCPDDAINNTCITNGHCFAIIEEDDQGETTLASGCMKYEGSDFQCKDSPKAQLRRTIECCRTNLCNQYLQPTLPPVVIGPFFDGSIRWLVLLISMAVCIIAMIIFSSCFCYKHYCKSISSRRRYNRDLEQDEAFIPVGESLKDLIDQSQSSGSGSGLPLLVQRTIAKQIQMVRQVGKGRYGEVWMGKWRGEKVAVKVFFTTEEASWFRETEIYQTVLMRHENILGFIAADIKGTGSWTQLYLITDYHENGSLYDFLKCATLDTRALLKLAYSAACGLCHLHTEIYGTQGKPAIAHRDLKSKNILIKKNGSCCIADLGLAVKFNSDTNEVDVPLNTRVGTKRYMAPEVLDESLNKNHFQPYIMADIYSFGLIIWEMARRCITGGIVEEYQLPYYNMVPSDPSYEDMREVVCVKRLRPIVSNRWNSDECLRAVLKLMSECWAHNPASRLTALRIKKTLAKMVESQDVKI
T1 sequence (P31751 whole entry E17K): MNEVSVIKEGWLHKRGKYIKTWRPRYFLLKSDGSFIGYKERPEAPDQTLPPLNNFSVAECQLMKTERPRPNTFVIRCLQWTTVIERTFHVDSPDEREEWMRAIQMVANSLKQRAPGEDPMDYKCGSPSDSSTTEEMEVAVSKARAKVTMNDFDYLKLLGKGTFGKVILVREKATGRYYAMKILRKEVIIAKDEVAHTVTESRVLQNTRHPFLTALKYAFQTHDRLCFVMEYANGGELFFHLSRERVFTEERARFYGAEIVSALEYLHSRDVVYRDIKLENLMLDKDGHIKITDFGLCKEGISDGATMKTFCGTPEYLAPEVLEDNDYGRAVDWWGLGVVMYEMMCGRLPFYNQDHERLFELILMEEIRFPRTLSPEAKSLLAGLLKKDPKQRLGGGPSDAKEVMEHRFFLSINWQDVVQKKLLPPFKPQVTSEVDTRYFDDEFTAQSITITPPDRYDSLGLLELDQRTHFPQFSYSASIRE
T8 sequence (Q02763 23-1124 P883A): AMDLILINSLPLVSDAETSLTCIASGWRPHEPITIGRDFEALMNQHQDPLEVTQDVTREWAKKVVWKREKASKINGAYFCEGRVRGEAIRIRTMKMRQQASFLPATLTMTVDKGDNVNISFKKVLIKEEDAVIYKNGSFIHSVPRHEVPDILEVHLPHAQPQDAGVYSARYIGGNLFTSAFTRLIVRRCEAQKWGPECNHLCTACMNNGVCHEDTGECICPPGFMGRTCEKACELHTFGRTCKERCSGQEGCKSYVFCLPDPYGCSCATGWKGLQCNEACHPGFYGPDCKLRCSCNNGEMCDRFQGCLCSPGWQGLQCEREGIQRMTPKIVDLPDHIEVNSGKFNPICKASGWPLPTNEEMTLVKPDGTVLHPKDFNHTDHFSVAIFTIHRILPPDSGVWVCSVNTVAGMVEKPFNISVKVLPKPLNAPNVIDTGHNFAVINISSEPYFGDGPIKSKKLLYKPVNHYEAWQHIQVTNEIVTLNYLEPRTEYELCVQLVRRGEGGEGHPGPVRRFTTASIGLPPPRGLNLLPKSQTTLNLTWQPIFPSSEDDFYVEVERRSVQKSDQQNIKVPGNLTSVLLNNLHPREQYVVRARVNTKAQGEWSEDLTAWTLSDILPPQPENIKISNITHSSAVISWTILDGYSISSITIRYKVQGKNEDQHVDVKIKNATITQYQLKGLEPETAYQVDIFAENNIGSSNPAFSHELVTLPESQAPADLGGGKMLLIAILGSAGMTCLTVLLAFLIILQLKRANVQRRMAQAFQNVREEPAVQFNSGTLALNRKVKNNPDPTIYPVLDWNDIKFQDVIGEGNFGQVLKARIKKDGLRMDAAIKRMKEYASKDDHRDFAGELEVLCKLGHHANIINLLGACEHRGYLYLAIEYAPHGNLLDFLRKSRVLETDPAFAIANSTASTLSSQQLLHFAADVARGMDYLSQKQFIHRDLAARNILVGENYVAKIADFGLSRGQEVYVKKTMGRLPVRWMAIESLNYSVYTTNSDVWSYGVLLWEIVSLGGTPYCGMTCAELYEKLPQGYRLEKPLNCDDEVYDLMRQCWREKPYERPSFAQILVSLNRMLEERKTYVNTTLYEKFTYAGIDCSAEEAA
T4 sequence (P15056 whole entry V600E): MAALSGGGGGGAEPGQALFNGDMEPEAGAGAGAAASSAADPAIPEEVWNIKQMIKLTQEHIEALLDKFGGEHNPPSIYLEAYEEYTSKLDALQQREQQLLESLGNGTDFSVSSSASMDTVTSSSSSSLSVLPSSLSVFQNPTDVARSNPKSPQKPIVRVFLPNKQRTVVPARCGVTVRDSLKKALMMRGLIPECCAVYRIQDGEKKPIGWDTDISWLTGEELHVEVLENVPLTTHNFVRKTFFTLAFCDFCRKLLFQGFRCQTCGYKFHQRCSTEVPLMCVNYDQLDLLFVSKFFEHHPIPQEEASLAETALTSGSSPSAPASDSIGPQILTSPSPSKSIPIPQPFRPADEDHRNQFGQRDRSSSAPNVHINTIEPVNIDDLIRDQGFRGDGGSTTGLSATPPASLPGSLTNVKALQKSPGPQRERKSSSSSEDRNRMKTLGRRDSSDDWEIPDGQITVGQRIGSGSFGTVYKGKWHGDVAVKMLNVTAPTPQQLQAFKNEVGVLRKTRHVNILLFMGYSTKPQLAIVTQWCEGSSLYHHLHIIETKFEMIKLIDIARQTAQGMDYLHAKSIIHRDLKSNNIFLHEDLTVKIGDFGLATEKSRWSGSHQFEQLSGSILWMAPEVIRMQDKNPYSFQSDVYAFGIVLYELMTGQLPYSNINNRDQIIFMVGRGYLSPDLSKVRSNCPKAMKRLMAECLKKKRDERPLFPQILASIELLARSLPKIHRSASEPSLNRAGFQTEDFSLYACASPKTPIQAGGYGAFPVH

Compound	% Enzyme Activity (relative to DMSO controls) [1]	remaining activity at 10 µM [1]	% Enzyme Activity (relative to DMSO controls) [2]	remaining activity at 10 µM [2]	% Enzyme Activity (relative to DMSO controls) [3]	remaining activity at 10 µM [3]	% Enzyme Activity (relative to DMSO controls) [4]	remaining activity at 10 µM [4]	remaining activity at 10 µM [5]	remaining activity at 10 µM [6]	remaining activity at 10 µM [7]	remaining activity at 10 µM [8]	remaining activity at 10 µM [9]	remaining activity at 10 µM [10]	% Enzyme Activity (relative to DMSO controls) [5]	% Enzyme Activity (relative to DMSO controls) [6]	% Enzyme Activity (relative to DMSO controls) [7]	% Enzyme Activity (relative to DMSO controls) [8]	% Enzyme Activity (relative to DMSO controls) [9]	% Enzyme Activity (relative to DMSO controls) [10]
CCNC(=O)c1noc(-c2cc(C(C)C)c(O)cc2O)c1-c1ccc(CN2CCOCC2)cc1 [Luminespib]	96.63%	98%	97.19%	99%	95.40%	96.8%	98.13%	98.8%	–	–	–	–	–	–	–	–	–	–	–	–
CC(C)c1cc(-c2n[nH]c(=O)n2-c2ccc3c(ccn3C)c2)c(O)cc1O [Ganetespib (STA9090)]	–	–	–	–	–	–	–	–	59.1%	59.5%	96.8%	74.5%	95.7%	68.1%	–	–	–	–	–	–
CCNC(=O)c1noc(-c2cc(C(C)C)c(O)cc2O)c1-c1ccc(CN2CCOCC2)cc1 [Luminespib (AUY-922)]	–	–	–	–	–	–	–	–	100%	107%	66.1%	104%	109%	91.5%	99.39%	106.80%	63.33%	100.72%	104.37%	91.09%
CC(C)c1cc(-c2n[nH]c(=O)n2-c2ccc3c(ccn3C)c2)c(O)cc1O [Ganetespib]	–	108%	–	104%	–	103%	–	110%	–	–	–	–	–	–	–	–	–	–	–	–
